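Assay format: 96-well plates, 48-hour exposure. TGI is the concentration that stops growth completely.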
What was measured:
Assay in all cases: NCI anticancer screen, dose series, 48 h
[1] = test system: SK-OV-3 ovarian
[2] = test system: SK-MEL-28 melanoma
[3] = test system: OVCAR-4 ovarian
[4] = test system: HOP-92 NSCLC
[5] = test system: KM12 colon
[6] = test system: NCI-H460 lung
[7] = test system: UO-31 renal
[8] = test system: KM20L2 colon
[9] = test system: UACC-62 melanoma
[10] = test system: DMS 114 small cell lung
[11] = test system: EKVX NSCLC
[12] = test system: NCI-H23 lung
[13] = test system: HL-60(TB) leukemia
[14] = test system: ACHN renal
[15] = test system: SK-MEL-5 melanoma
[16] = test system: OVCAR-5 ovarian
[17] = test system: UACC-257 melanoma
[18] = test system: OVCAR-3 ovarian
[19] = test system: M14 melanoma
[20] = test system: RXF 393 renal
[21] = test system: SNB-19 CNS
[22] = test system: DMS 273 small cell lung
[23] = test system: CCRF-CEM leukemia
[24] = test system: K-562 leukemia
[25] = test system: OVCAR-8 ovarian
[26] = test system: RPMI-8226 leukemia
[27] = test system: A549 NSCLC
[28] = test system: 786-0 renal
[29] = test system: HOP-62 NSCLC
[30] = test system: DLD-1 colon
[31] = test system: IGROV1 ovarian
[32] = test system: SR leukemia
[33] = test system: SF-295 CNS
[34] = test system: NCI-H226 lung
[35] = test system: LXFL 529 NSCLC
[36] = test system: HCT-15 colon
[37] = test system: SF-539 CNS
[38] = test system: TK-10 renal
[39] = test system: SW-620 colon
[40] = test system: U251 CNS
[41] = test system: SNB-75 CNS
[42] = test system: SK-MEL-2 melanoma
[43] = test system: A498 renal
[44] = test system: MALME-3M melanoma
[45] = test system: HOP-18 NSCLC
[46] = test system: MOLT-4 leukemia
[47] = test system: HT29 colon
[48] = test system: HCT-116 colon
[49] = test system: SF-268 CNS
[50] = test system: SN12C renal
[51] = test system: LOX IMVI melanoma
[52] = test system: CAKI-1 renal
[53] = test system: M19-MEL melanoma
[54] = test system: NCI-H522 lung
[55] = test system: RXF-631 renal
[56] = test system: HCC-2998 colon
[57] = test system: SNB-78 CNS
[58] = test system: COLO 205 colon
[59] = test system: XF 498 CNS

## CCCCCCCCCCCCCCCC(=O)OCC1OC(n2cc(F)c(=O)[nH]c2=O)C(NC(=O)N(CCCl)N=O)C(O)C1O (stereo not drawn)
[1]
  TGI: 14.3 µM
[2]
  TGI: 7.96 µM
[3]
  TGI: 20.5 µM
[4]
  TGI: 11.6 µM
[5]
  TGI: 4.91 µM
[6]
  TGI: 4.81 µM
[7]
  TGI: 29.6 µM
[8]
  TGI: 18.4 µM
[9]
  TGI: 1.17 µM
[10]
  TGI: 5.02 µM
[11]
  TGI: 7.18 µM
[12]
  TGI: 2.84 µM
[13]
  TGI: 7.69 µM
[14]
  TGI: 10.9 µM
[15]
  TGI: 9.8 µM
[16]
  TGI: 25.9 µM
[17]
  TGI: 17.8 µM
[18]
  TGI: 20.9 µM
[19]
  TGI: 11.7 µM
[20]
  TGI: 8.37 µM
[21]
  TGI: 8.71 µM
[22]
  TGI: 4.3 µM
[23]
  TGI: 6.58 µM
[24]
  TGI: 25.6 µM
[25]
  TGI: 9.69 µM
[26]
  TGI: 20.5 µM
[27]
  TGI: 7.14 µM
[28]
  TGI: 3.59 µM
[29]
  TGI: 2.34 µM
[30]
  TGI: 12.5 µM
[31]
  TGI: 18.1 µM
[32]
  TGI: 5.8 µM
[33]
  TGI: 6.03 µM
[34]
  TGI: 24 µM
[35]
  TGI: 15.8 µM
[36]
  TGI: 15.1 µM
[37]
  TGI: 1.36 µM
[38]
  TGI: 26.1 µM
[39]
  TGI: 6.58 µM
[40]
  TGI: 3.74 µM
[41]
  TGI: 1.56 µM
[42]
  TGI: 3.3 µM
[43]
  TGI: 10.1 µM
[44]
  TGI: 10.1 µM
[45]
  TGI: 33.3 µM
[46]
  TGI: > 39.9 µM
[47]
  TGI: 14.1 µM
[48]
  TGI: 3.07 µM
[49]
  TGI: 2.83 µM
[50]
  TGI: 15.6 µM
[51]
  TGI: 2.24 µM
[52]
  TGI: 20.5 µM
[53]
  TGI: 9.91 µM
[54]
  TGI: 10 µM
[55]
  TGI: 17.9 µM
[56]
  TGI: 11.3 µM
[57]
  TGI: 18.1 µM
[58]
  TGI: 9.51 µM

## CC1=CCN(c2ccccn2)OC1c1ccccc1 (stereo not drawn)
[1]
  TGI: > 100 µM
[2]
  TGI: > 100 µM
[3]
  TGI: > 100 µM
[5]
  TGI: > 100 µM
[6]
  TGI: > 100 µM
[7]
  TGI: > 100 µM
[8]
  TGI: > 100 µM
[9]
  TGI: > 100 µM
[10]
  TGI: > 100 µM
[11]
  TGI: > 100 µM
[12]
  TGI: > 100 µM
[13]
  TGI: > 100 µM
[14]
  TGI: > 100 µM
[16]
  TGI: > 100 µM
[17]
  TGI: > 100 µM
[18]
  TGI: > 100 µM
[19]
  TGI: > 100 µM
[20]
  TGI: > 100 µM
[21]
  TGI: > 100 µM
[22]
  TGI: > 100 µM
[23]
  TGI: > 100 µM
[24]
  TGI: > 100 µM
[25]
  TGI: > 100 µM
[26]
  TGI: > 100 µM
[27]
  TGI: > 100 µM
[28]
  TGI: > 100 µM
[29]
  TGI: > 100 µM
[30]
  TGI: > 100 µM
[31]
  TGI: > 100 µM
[32]
  TGI: > 100 µM
[33]
  TGI: > 100 µM
[34]
  TGI: > 100 µM
[35]
  TGI: > 100 µM
[36]
  TGI: > 100 µM
[37]
  TGI: > 100 µM
[39]
  TGI: > 100 µM
[40]
  TGI: > 100 µM
[41]
  TGI: > 100 µM
[42]
  TGI: > 100 µM
[44]
  TGI: > 100 µM
[45]
  TGI: > 100 µM
[46]
  TGI: > 100 µM
[47]
  TGI: > 100 µM
[48]
  TGI: > 100 µM
[49]
  TGI: > 100 µM
[50]
  TGI: > 100 µM
[51]
  TGI: > 100 µM
[52]
  TGI: > 100 µM
[53]
  TGI: > 100 µM
[54]
  TGI: > 100 µM
[55]
  TGI: > 100 µM
[56]
  TGI: > 100 µM
[59]
  TGI: > 100 µM
[57]
  TGI: > 100 µM
[58]
  TGI: > 100 µM
